Measurements as given in patent US10548877B2, “Aromatic ring compound” (TAKEDA PHARMACEUTICAL COMPANY LIMITED, priority 2016, dated 2020).

Target: T1, human M1 receptor (hCHRM1) (Homo sapiens, UniProt P11229)
T1 construct: expressed in transfected cells
T1 sequence (P11229 1-460): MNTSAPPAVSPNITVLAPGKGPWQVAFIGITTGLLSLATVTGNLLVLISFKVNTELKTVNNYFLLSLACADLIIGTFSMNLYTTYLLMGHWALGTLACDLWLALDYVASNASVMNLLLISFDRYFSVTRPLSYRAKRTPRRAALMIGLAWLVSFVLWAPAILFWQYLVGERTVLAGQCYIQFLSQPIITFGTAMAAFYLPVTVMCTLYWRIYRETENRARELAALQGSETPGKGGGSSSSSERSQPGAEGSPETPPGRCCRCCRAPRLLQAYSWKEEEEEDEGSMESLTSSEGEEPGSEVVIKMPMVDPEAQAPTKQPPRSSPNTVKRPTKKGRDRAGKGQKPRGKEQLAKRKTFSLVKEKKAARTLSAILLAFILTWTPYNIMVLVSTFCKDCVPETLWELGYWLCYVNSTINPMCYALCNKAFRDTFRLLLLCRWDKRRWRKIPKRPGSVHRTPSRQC
Test: Measurement of M1 receptor positive allosteric modulator (M1PAM) activity (calcium fluorescence, Fluo-4)
Format: cell-based
Details: for EC50: inflection point of concentration-dependent curve, CHO-K1 cells stably expressing hCHRM1, in presence of acetylcholine at EC20 (final 0.8-1.0 nM), read-out: IP value; for activity (%) at 10 μM: test compound 10 μM with acetylcholine at EC20, 100% = 1 μM acetylcholine, 0% = DMSO, CHO-K1 cells expressing hCHRM1
Method: Measurement of M1 Receptor Positive Allosteric Modulator (M1PAM) Activity
The activity of a test compound in the presence of acetylcholine at EC20 concentration (final concentration 0.8-1.0 nM), which affords an action corresponding to about 20% of the maximum activity, was measured as PAM activity. The method is as follows. CHO-K1 cells stably expressing a human M1 receptor (hCHRM1) were plated on a 384-well black clear bottom plate (BD Falcon) at 5,000 cells/well, and cultured in an incubator at 37° C., 5% CO2 for 1 day. The medium in the cell plate was removed, and assay buffer A containing a calcium indicator (Recording medium (DOJINDO LABORATORIES), 0.1% BSA (Wako Pure Chemical Industries, Ltd.), 2.5 μg/mL Fluo-4 AM (DOJINDO LABORATORIES), 0.08% Pluronic F127 (DOJINDO LABORATORIES) and 1.25 mM probenecid (DOJINDO LABORATORIES) were added at 30 μL/well. The cells were left standing in the incubator at 37° C., 5% CO2 for 30 min, and further left standing at room temperature for 30 min. A test compound prepared by diluting with assay buffer B (HBSS (Invitrogen), 20 mM HEPES (Invitrogen), 0.1% BSA) containing 3.2-4.0 nM acetylcholine was added at 10 μL/well, and the fluorescence was measured by FDSS/pcell (Hamamatsu Photonics K.K.) for 1 min every for 1 second. With the definition that the amount of change in the fluorescence on addition of acetylcholine (final concentration 1 μM) is 100% and that on addition of DMSO instead of a test compound is 0%, the activity (%) of the test compound was calculated, and the inflection point in the concentration-dependent curve of the test compound was calculated as IP values.

With `COc1c(C(=O)N[C@H]2COCC[C@@H]2O)cc(Cc2ccc(-c3ccn(C)n3)nc2)c(C)c1C` [Example 31, 1,5-anhydro-2,4-dideoxy-2-((2-methoxy-3,4-dimethyl-5-((6-(1-methyl-1H-pyrazol-3-yl)pyridin-3-yl)methyl)benzoyl)amino)-L-threo-pentitol] as the compound, how does the EC50 read?
Its EC50 is 67 nM.

And the “activity (%) at 10 μM” value?
The value was 97%.

`Cc1c(Cc2ccc(-n3cccn3)cc2)cc(C(=O)N[C@H]2COCC[C@@H]2O)c(F)c1C` [Example 12, 2-fluoro-N-((3S,4S)-4-hydroxytetrahydro-2H-pyran-3-yl)-3,4-dimethyl-5-(4-(1H-pyrazol-1-yl)benzyl)benzamide] was tested. Which EC50 did it give?
The EC50 was 19 nM.

And the “activity (%) at 10 μM” value?
The value was 103%.
